One series has as its system Artemia. In words: Toxicity against brine shrimp. In kind it is organism-based. Particulars: in vivo.
Series [1] deals with Agrobacterium tumefaciens. Description: Antitumor activity against Agrobacterium tumefaciens-induced crown gall tumors in potato tuber by potato disk test. The series is classed as functional.
The subject of a further series is A549. Description: Cytotoxicity against human A549 cells. The series is classed as functional. The conditions noted are these: read-out: ED50 (the source's name).
Another series has as its system MCF7. Description: Cytotoxicity against human MCF7 cells. The series is classed as functional. The conditions noted are these: read-out: ED50 (the source's name).
Another series deals with HT-29. In words: Cytotoxicity against human HT-29 cells. In kind it is functional. Particulars: read-out: ED50 (the source's name).
In another series the test system is Culicidae. Description: Pesticidal activity against mosquito larvae at 10 ppm. The series is classed as functional.
For another series, the system named is Tetranychus urticae. Description: Pesticidal activity against two spotted spider mite at 400 ppm. The series is classed as functional.
For series [2], the system named is Aphis gossypii. In words: Pesticidal activity against melon aphid at 10 ppm. The series is classed as functional.
The test system of series [3] is Diabrotica undecimpunctata. In words: Pesticidal activity against southern corn rootworm at 300 ppm. The conditions noted are these: howardi. In kind it is functional, organism-based.
A further series deals with Spodoptera eridania. In words: Pesticidal activity against southern armyworm at 5000 ppm. In kind it is functional, organism-based.
For another series, the system named is Haemonchus contortus. Description: Nematicidal activity against Haemonchus contortus. The series is classed as functional.
The test system of a further series is Calliphoridae. In words: Pesticidal activity against blowfly. In kind it is functional.
The subject of series [4] is Aphis gossypii. In words: Pesticidal activity against melon aphid at 400 ppm. In kind it is functional.

Two molecules from ChEMBL document CHEMBL1150176, “Majorenolide and majorynolide: a new pair of cytotoxic and pesticidal alkene-alkyne delta-lactones from Persea major” (J Nat Prod, 1989) can be followed below.

Converted amounts (≈) assume the structure as drawn. The source made the active and inactive calls. The calls are words filed in the database; no cut-off is given here.

In the case of `C=CCCCCCCCCC/C=C1\CC(CO)OC1=O` (centres undefined) [MAJORENOLIDE], the LC50 with Artemia is reported as 0.36 ppm. Also, the “inhibition (INH)” value in [1] came out at 86%. Also, the EC50 was found to be 1.7 µg/mL (≈ 6.06 µM) in the series with A549, 2.58 µg/mL (≈ 9.2 µM) with MCF7 and 2.61 µg/mL (≈ 9.31 µM) with HT-29. Further, the Activity in the series on Culicidae turned out to be 20%; in the series on Tetranychus urticae, 0%; with Aphis gossypii [2] it was 80%; with Haemonchus contortus, 0.1%; with Calliphoridae, 1%. The outcome (in series [3]; in the series on Spodoptera eridania) was inactive.
The molecule `C#CCCCCCCCCC/C=C1\CC(CO)OC1=O` (centres undefined) [MAJORYNOLIDE] had an LC50 with Artemia of 0.89 ppm. Also, the “inhibition (INH)” value in series [1] stood at 46%. Further, the EC50 was determined as 4.64 µg/mL (≈ 16.7 µM) in the series on A549, 9.56 µg/mL (≈ 34.3 µM) in the series on MCF7 and 13.8 µg/mL (≈ 49.6 µM) in the series with HT-29. The Activity is reported as 0% in the series with Culicidae; 0% with Tetranychus urticae; 0% with Aphis gossypii [4]; 0.1% in the series on Haemonchus contortus; 1% with Calliphoridae. Also, the result (in series [3]; in the series with Spodoptera eridania) was inactive.

As a reminder, the LC50 is the concentration lethal to half of the exposed cells or organisms.
